Measured values as given in US20030059511A1, “Sweetener compositions and uses thereof” (AJINOMOTO CO., INC., priority 1999, published 2003).

Key:
[1] = Equivalent concentration of bitter taste (Example 30), thiamine hydrochloride; type: in vivo, human; details: derivative 4 2.2 ppm; thiamine hydrochloride 5000 ppm; no addition 0.131
Experimental: (§1) With respect to the solution produced by adding derivative 1 (the product of the present invention), or adding nothing (no addition; the reference product) in the concentration shown in the following table 4 to the amino acid solution (2% solution of arginine by weight), the sensory evaluation was performed (using 10 panelists), and the equivalent concentration of bitter taste was determined. The results were shown in the table 4, wherein the equivalent concentration of bitter taste was shown in the concentration of aqueous solution of anhydrous caffeine which is a substance of bitter taste.
With respect to the solution produced by adding derivative 4 (2.2 ppm) to each of the substances of Quinine sulfate (39 ppm), anhydrous caffeine (2000 ppm), ferrous citrate (50 ppm), calcium lactate (1500 ppm), and thiamine hydrochloride (5000 ppm) (the product of the present invention), or adding nothing thereto (no addition; the reference product) the reference product (no addition), the sensory evaluation was performed (using 10 panelists), and the equivalent concentration of bitter taste was determined in the same way as that described in Example 28, and shown in table 6.

[2] = Equivalent concentration of bitter taste, sensory evaluation, mixed amino acids (Example 29); type: in vivo, human; details: 2% mixed amino acids; addition: Derivative 2 10 ppm, Glycyrrhizin 250 ppm, Sucrose 50000 ppm; no addition 0.105
Experimental: as §1
With respect to the solution produced by adding derivative 2, Glycyrrhizin or sucrose (the product of the present invention), or adding nothing (no addition; the-reference product) to 2% (by weight) solution of the mixed amino acids (leucine:valine:isoleucine=1:0.5:0.5 by weight), the sensory evaluation was performed (using 10 panelists), and the equivalent concentration of bitter taste was determined in the same way as that described in Example 28, and shown in the table 5.

SMILES	Equivalent concentration of bitter taste (Amount of anhydrous caffeine g/100 g), Tiamine hydrochloride [1] [g/100 g]	Equivalent concentration of bitter taste [2] [g/100 g]
COC(=O)[C@H](Cc1ccccc1)NC(=O)[C@H](CC(=O)O)NCCC(C)(C)c1ccc(O)c(C)c1 [Derivative 4, N-[N-[3-(3-methyl-4-hydroxyphenyl)-3-methylbutyl]-L-α-aspartyl]-L-phenylalanine 1-methyl ester]	0.093	–
COC(=O)[C@H](Cc1ccccc1)NC(=O)[C@H](CC(=O)O)NCCCc1ccc(OC)cc1 [Derivative 2, N-[N-[3-(4-methoxyphenyl)propyl]-L-α-aspartyl]-L-phenylalanine 1-methyl ester]	–	0.051
